Measurements: ChEMBL document CHEMBL1240392 (Antimicrob Agents Chemother, 2010)
Converted amounts (≈) assume the structure as drawn. The source made the active and inactive calls. The calls are words filed in the database; no cut-off is given here.

Columns and labels:
[1] = T>MIC in Acinetobacter baumannii infected New Zealand rabbit meningitis model at 30 mg/kg, im; type: functional; settings: route intramuscular
[2] = test system: Acinetobacter baumannii; experiment: Antimicrobial activity against Acinetobacter baumannii 506 after 24 hrs by time-kill assay; type: functional, organism-based
[3] = test system: Acinetobacter baumannii; experiment: Antibacterial activity against Acinetobacter baumannii infected in C57BL/6 mouse model assessed as survival rate at total dose of 240 mg/kg/day, im administered as four divided doses measured after 72 hrs post last dose relative to control; type: functional; settings: route intramuscular
[4] = test system: Acinetobacter baumannii; experiment: Antimicrobial activity against Acinetobacter baumannii 1417; type: functional
[5] = Ratio of Cmax to MIC for Acinetobacter baumannii 1327 in pharmacokinetic-pharmacodynamic New Zealand rabbit meningitis model at 30 mg/kg, im; type: functional; settings: route intramuscular
[6] = Ratio of AUC to MIC for Acinetobacter baumannii 1327 in pharmacokinetic-pharmacodynamic C57BL/6 mouse pneumonia model at 60 mg/kg, im; type: functional; settings: route intramuscular
[7] = test system: Acinetobacter baumannii; experiment: Antimicrobial activity against Acinetobacter baumannii 1327 after 24 hrs by time-kill assay; type: functional, organism-based
[8] = test system: Acinetobacter baumannii; experiment: Antimicrobial activity against Acinetobacter baumannii infected in C57BL/6 mouse model assessed as reduction in bacterial count per gram of lung at total dose of 240 mg/kg/day, im administered as four divided doses after 72 hrs (RVb = 10.6+/-0.27); type: functional, organism-based
[9] = Ratio of AUC to MIC for Acinetobacter baumannii 1327 in pharmacokinetic-pharmacodynamic New Zealand rabbit meningitis model at 30 mg/kg, im; type: functional; settings: route intramuscular
[10] = Cmax in C57BL/6 mouse pneumonia model at 60 mg/kg, im; type: ADME, organism-based; set-up: dose 60 mg/kg, route intramuscular; settings: in vivo
[11] = T>MIC in Acinetobacter baumannii infected C57BL/6 mouse pneumonia model at 60 mg/kg, im; type: functional; settings: route intramuscular
[12] = test system: Acinetobacter baumannii; experiment: Antimicrobial activity against Acinetobacter baumannii 1327; type: functional
[13] = Cmax in New Zealand rabbit meningitis model at 30 mg/kg, im; type: ADME, organism-based, Oryctolagus cuniculus; set-up: dose 30 mg/kg, route intramuscular; settings: in vivo
[14] = Half life in C57BL/6 mouse pneumonia model at 60 mg/kg, im; type: ADME, organism-based; set-up: dose 60 mg/kg, route intramuscular; settings: in vivo
[15] = test system: Acinetobacter baumannii; experiment: Antimicrobial activity against Acinetobacter baumannii 940 after 24 hrs by time-kill assay; type: functional, organism-based
[16] = Half life in New Zealand rabbit meningitis model at 30 mg/kg, im; type: ADME, organism-based, Oryctolagus cuniculus; set-up: dose 30 mg/kg, route intramuscular; settings: in vivo
[17] = AUC in C57BL/6 mouse pneumonia model at 60 mg/kg, im; type: ADME, organism-based; set-up: dose 60 mg/kg, route intramuscular; settings: in vivo
[18] = Ratio of Cmax to MIC for Acinetobacter baumannii 1327 in pharmacokinetic-pharmacodynamic C57BL/6 mouse pneumonia model at 60 mg/kg, im; type: functional; settings: route intramuscular
[19] = AUC in New Zealand rabbit meningitis model at 30 mg/kg, im; type: ADME, organism-based, Oryctolagus cuniculus; set-up: dose 30 mg/kg, route intramuscular; settings: in vivo
[20] = test system: Acinetobacter baumannii; experiment: Antimicrobial activity against Acinetobacter baumannii 1417 after 24 hrs by time-kill assay; type: functional, organism-based
[21] = test system: Acinetobacter baumannii; experiment: Antimicrobial activity against Acinetobacter baumannii 506; type: functional
[22] = test system: Acinetobacter baumannii; experiment: Antimicrobial activity against Acinetobacter baumannii infected in C57BL/6 mouse model assessed as reduction in bacterial count in blood at total dose of 240 mg/kg/day, im administered as four divided doses after 72 hrs; type: functional; set-up: scale not given: the % may be the effect or the level left; settings: route intramuscular
[23] = test system: Acinetobacter baumannii; experiment: Antimicrobial activity against Acinetobacter baumannii 940; type: functional
[24] = test system: Mus musculus; experiment: AUC in C57BL/6 mouse pneumonia model at 20 mg/kg, im; type: ADME, organism-based; set-up: dose 20 mg/kg, route intramuscular; settings: in vivo
[25] = test system: Oryctolagus cuniculus; experiment: AUC in New Zealand rabbit meningitis model at 12 mg/kg, im; type: ADME, organism-based; set-up: dose 12 mg/kg, route intramuscular; settings: in vivo
[26] = test system: Mus musculus; experiment: Half life in C57BL/6 mouse pneumonia model at 20 mg/kg, im; type: ADME, organism-based; set-up: dose 20 mg/kg, route intramuscular; settings: in vivo
[27] = test system: Oryctolagus cuniculus; experiment: Half life in New Zealand rabbit meningitis model at 12 mg/kg, im; type: ADME, organism-based; set-up: dose 12 mg/kg, route intramuscular; settings: in vivo
[28] = test system: Oryctolagus cuniculus; experiment: Cmax in New Zealand rabbit meningitis model at 12 mg/kg, im; type: ADME, organism-based; set-up: dose 12 mg/kg, route intramuscular; settings: in vivo
[29] = species on record: Homo sapiens; experiment: AUC in human; type: ADME, organism-based, Plasma; settings: in vivo
[30] = test system: Mus musculus; experiment: Cmax in C57BL/6 mouse pneumonia model at 20 mg/kg, im; type: ADME, organism-based; set-up: dose 20 mg/kg, route intramuscular; settings: in vivo
[31] = test system: Oryctolagus cuniculus; experiment: Antiinflammatory activity in Acinetobacter baumannii 1327-infected New Zealand rabbit meningitis model assessed as brain edema at 12 mg/kg, im; type: functional, organism-based; set-up: dose 12 mg/kg
[32] = test system: Acinetobacter baumannii; experiment: Antimicrobial activity against Acinetobacter baumannii infected in C57BL/6 mouse model assessed as reduction in bacterial count per gram of lung at total dose of 60 mg/kg/day, im administered as four divided doses after 72 hrs (RVb = 10.6+/-0.27); type: functional, organism-based
[33] = Ratio of AUC to MIC for Acinetobacter baumannii 1327 in pharmacokinetic-pharmacodynamic New Zealand rabbit meningitis model at 12 mg/kg, im; type: functional, organism-based; set-up: dose 12 mg/kg
[34] = test system: Acinetobacter baumannii; experiment: Antibacterial activity against Acinetobacter baumannii 1327 infected in New Zealand rabbit meningitis model assessed as reduction in bacterial count in CSF at 25 mg/kg, im measured after 2 hrs of last dose (RVb = […]); type: functional, organism-based; set-up: dose 25 mg/kg
[35] = T>MIC in Acinetobacter baumannii infected C57BL/6 mouse pneumonia model at 20 mg/kg, im; type: functional, organism-based; set-up: dose 20 mg/kg
[36] = test system: Acinetobacter baumannii; experiment: Antibacterial activity against Acinetobacter baumannii 1327 infected in New Zealand rabbit meningitis model assessed as reduction in bacterial count in CSF at 25 mg/kg, im measured after 4 hrs of last dose (RVb = 5.2); type: functional, organism-based; set-up: dose 25 mg/kg
[37] = Ratio of AUC to MIC for Acinetobacter baumannii 1327 in pharmacokinetic-pharmacodynamic C57BL/6 mouse pneumonia model at 12 mg/kg, im; type: functional, organism-based; set-up: dose 12 mg/kg
[38] = test system: Acinetobacter baumannii; experiment: Antimicrobial activity against Acinetobacter baumannii infected in C57BL/6 mouse model assessed as reduction in bacterial count in blood at total dose of 60 mg/kg/day, im administered as four divided doses after 72 hrs; type: functional, organism-based; set-up: scale not given: the % may be the effect or the level left
[39] = test system: Acinetobacter baumannii; experiment: Antimicrobial activity against Acinetobacter baumannii; type: functional, organism-based
[40] = test system: Acinetobacter baumannii; experiment: Antibacterial activity against Acinetobacter baumannii infected in C57BL/6 mouse model assessed as survival rate at total dose of 60 mg/kg/day, im administered as four divided doses measured after 72 hrs post last dose relative to control; type: functional, organism-based
[41] = Ratio of Cmax to MIC for Acinetobacter baumannii 1327 in pharmacokinetic-pharmacodynamic C57BL/6 mouse pneumonia model at 20 mg/kg, im; type: functional, organism-based; set-up: dose 20 mg/kg
[42] = test system: Oryctolagus cuniculus; experiment: Antiinflammatory activity in Acinetobacter baumannii 1327-infected New Zealand rabbit meningitis model assessed as in WBC count at 12 mg/kg, im after 6 hrs (RVb = 1 cells/ul); type: functional, organism-based; set-up: dose 12 mg/kg
[43] = T>MIC in Acinetobacter baumannii infected New Zealand rabbit meningitis model at 12 mg/kg, im; type: functional, organism-based; set-up: dose 12 mg/kg
[44] = test system: Acinetobacter baumannii; experiment: Antibacterial activity against Acinetobacter baumannii 1327 infected in New Zealand rabbit meningitis model assessed as reduction in bacterial count in CSF at 25 mg/kg, im measured after 6 hrs of last dose (RVb = 5.5); type: functional, organism-based; set-up: dose 25 mg/kg
[45] = Ratio of Cmax to MIC for Acinetobacter baumannii 1327 in pharmacokinetic-pharmacodynamic New Zealand rabbit meningitis model at 12 mg/kg, im; type: functional, organism-based; set-up: dose 12 mg/kg

Compound: CC1(C)[C@H](C(=O)O)N2C(=O)C[C@H]2S1(=O)=O [SULBACTAM]
- T>MIC [1]: 0.84 h
- Activity [2]: Active
- survival at 240 mg/kg/day [3]: 40%
- MBC [4]: 32 µg/mL (≈ 137 µM)
- MIC [4]: 32 µg/mL (≈ 137 µM)
- Ratio [5]: 2.35
- Ratio [6]: 2.73
- Activity [7]: Active
- Activity [8]: Active
- Ratio [9]: 1.78
- Cmax [10]: 89.5 µg/mL
- T>MIC [11]: 1.29 h
- MBC [12]: 32 µg/mL (≈ 137 µM)
- MIC [12]: 32 µg/mL (≈ 137 µM)
- Cmax [13]: 75.3 µg/mL
- half-life [14]: 21 min
- Activity [15]: Active
- half-life [16]: 32.4 min
- AUC [17]: 87500 ng·h/mL
- Ratio [18]: 2.8
- AUC [19]: 57100 ng·h/mL
- Activity [20]: Active
- MBC [21]: 32 µg/mL (≈ 137 µM)
- MIC [21]: 32 µg/mL (≈ 137 µM)
- Activity [22]: 33.3%
- MBC [23]: 32 µg/mL (≈ 137 µM)
- MIC [23]: 32 µg/mL (≈ 137 µM)

Compound: COLISTIN [listing 1 of 2 here]
- AUC [24]: 26420 ng·h/mL
- AUC [25]: 41720 ng·h/mL
- t1/2 [26]: 32.4 min
- t1/2 [27]: 185 min
- Cmax [28]: 9 µg/mL
- AUC [29]: 23430 ng·h/mL
- Cmax [30]: 27.39 µg/mL

Compound: COLISTIN [listing 2 of 2 here]
- Activity [31]: 383 µL⁻¹
- Activity [32]: Active
- Ratio [33]: 83.4
- Activity [2]: Active
- Activity [34]: 5.2 log10CFU/ml
- MBC [4]: 1 µg/mL
- MIC [4]: 0.5 µg/mL
- T>MIC [35]: 3.72 h
- Activity [36]: 4.7 log10CFU/ml
- Ratio [37]: 52.8
- Activity [38]: 73.3%
- Activity [7]: Active
- MBC [12]: 2 µg/mL
- MIC [12]: 0.5 µg/mL
- Activity [15]: Active
- MIC [39]: 0.5 µg/mL
- Survival [40]: 40%
- Activity [20]: Active
- Ratio [41]: 54.8
- Activity [42]: 4%
- MBC [21]: 2 µg/mL
- MIC [21]: 0.5 µg/mL
- T>MIC [43]: 11.4 h
- Activity [44]: 4.3 log10CFU/ml
- Ratio [45]: 18
- MBC [23]: 8 µg/mL
- MIC [23]: 0.5 µg/mL
